From US20030170223A1, “Pulmonary vasodilator surfactant compositions and method of use” (Board of Trustees of Michigan State University, priority 2002, published 2003)

Tests used:
[1] = target: TNF-α (Homo sapiens, UniProt P01375); details: Fichtlscherer (2001); cited from earlier work
[2] = tested on: elevated PVR; assay: GBS-induced pulmonary hypertension, pilot experiments; type: in vivo, rats
Procedure: Experimental Protocol is as follows. Fifteen rats were randomly assigned to 1 of 3 groups. Measurements taken at each time point included arterial and mixed venous blood gases, inert gas determinations in samples of arterial blood, mixed venous blood and expired gas, and TNF and TxB2 assays, mean P sa′ mean PAP, P pcw′ and CO from arterial blood, and PVR (PVR=PAP−P pcw/CO), and systemic vascular resistance (SVR=P sa/CO) were calculated at each time point.
After baseline measurements, all rats received continuous infusion of GBS (1.25×10^9 cfu/kg/hr) for 5 hours. Repeat measurements were made at 0.5, 4.0, 4.5, and 5.0 hr of GBS infusion. After 4 hours of GBS infusion, treated animals received amr (amr 10 and amr 20) (Inocor lactate, Sterling Drug Co., New York, N.Y.); control animals (control) received the amr carrier solution containing lactic acid and sodium metabisulfite. Amr 10 rats (n=5; 11.2: t 4.1 days; 3.0: t 0.5 kg) received an amr bolus (8 mg/kg) followed by a continuous infusion of amr diluted with normal saline (10 about g/kg/min) for 1 hour. Amr 20 rats (n=5; 9.2 t 2.2 days; 2.2: t 0.4 kg) received the same amr bolus (8 mg/kg) followed by a continuous infusion of amr diluted with normal saline (20 about g/kg/min) for 1 hour. […]

[3] = tested on: non-septic forms of pulmonary hypertension; details: infusion rates of 10 to 40 about g/kg/min, human studies; cited from earlier work

TNF-α, sequence (P01375 77-233 limits assumed): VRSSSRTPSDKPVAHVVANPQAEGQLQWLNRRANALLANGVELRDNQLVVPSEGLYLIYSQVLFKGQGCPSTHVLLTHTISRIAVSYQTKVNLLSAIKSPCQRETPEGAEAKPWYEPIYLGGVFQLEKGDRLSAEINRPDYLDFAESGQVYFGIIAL

| Molecule | systemic endothelial vasodilator capacity [1] | effect on elevated PVR [2] | reversal of non-septic pulmonary hypertension [3] |
| --- | --- | --- | --- |
| ETANERCEPT | profoundly improves |  |  |
| CC(O)C(=O)O.Nc1cc(-c2ccncc2)c[nH]c1=O [amr] |  | acute reduction in elevated PVR | successful in reversing |
